Several values for one entry are separate records, joined by “and”; a condition that tells them apart may be missing. Identical values can stand only once.
What was measured:
[1] = target: Sterol 14-alpha demethylase (Trypanosoma cruzi (strain CL Brener), UniProt Q7Z1V1); test: Inhibition Assay; conditions: pH 6
[2] = target: Lanosterol 14-alpha-demethylase (Trypanosoma brucei brucei (strain 927/4 GUTat10.1), UniProt Q385E8); test: Inhibition Assay; conditions: pH 6
Lanosterol 14-alpha-demethylase, sequence (Q385E8 whole entry): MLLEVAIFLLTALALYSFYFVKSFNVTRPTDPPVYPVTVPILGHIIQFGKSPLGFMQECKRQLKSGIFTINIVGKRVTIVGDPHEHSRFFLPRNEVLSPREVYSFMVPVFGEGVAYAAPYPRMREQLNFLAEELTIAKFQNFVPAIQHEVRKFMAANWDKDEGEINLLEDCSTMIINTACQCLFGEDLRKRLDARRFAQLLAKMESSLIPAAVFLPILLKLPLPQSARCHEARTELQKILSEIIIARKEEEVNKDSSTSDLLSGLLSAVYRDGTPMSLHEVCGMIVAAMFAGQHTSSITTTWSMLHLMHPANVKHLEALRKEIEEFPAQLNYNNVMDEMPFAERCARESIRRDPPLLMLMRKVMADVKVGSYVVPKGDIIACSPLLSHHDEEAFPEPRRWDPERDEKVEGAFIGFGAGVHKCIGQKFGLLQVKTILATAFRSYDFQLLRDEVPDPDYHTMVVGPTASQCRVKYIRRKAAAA

Sterol 14-alpha demethylase, sequence (Q7Z1V1 whole entry): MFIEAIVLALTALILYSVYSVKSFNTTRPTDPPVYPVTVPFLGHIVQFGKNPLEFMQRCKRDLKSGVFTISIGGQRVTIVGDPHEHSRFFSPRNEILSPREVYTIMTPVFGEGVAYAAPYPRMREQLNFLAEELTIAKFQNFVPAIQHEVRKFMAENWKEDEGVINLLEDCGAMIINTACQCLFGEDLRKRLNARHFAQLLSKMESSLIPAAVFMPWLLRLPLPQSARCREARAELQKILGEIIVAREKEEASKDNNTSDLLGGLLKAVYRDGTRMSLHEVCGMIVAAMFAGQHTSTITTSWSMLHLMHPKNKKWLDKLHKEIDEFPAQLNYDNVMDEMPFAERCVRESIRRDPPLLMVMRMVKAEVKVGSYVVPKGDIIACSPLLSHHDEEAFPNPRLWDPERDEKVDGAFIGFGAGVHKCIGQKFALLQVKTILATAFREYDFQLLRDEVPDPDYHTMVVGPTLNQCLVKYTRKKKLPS

| SMILES | Kd [1] [nM] | Kd [2] |
| --- | --- | --- |
| O=C(NC(Cn1ccnc1)c1ccccc1)c1ccc(-c2ccc(Cl)cc2)cc1 (centres undefined) [Azole, 4] | 70 | 50 nM |
| O=C(NCC(c1ccccc1)n1ccnc1)c1cccc2c1oc1ccccc12 (centres undefined) [Azole, 6] | 130 | 210 nM |
| O=C(NC(Cn1ccnc1)c1ccc(Cl)cn1)c1ccc(-c2ccc(Cl)cc2)cc1 (centres undefined) [Azole, 19] | 60 | 90 nM |
| O=C(NC(Cn1ccnc1)c1ccc(Cl)cc1Cl)c1nnc(-c2ccccc2)o1 (centres undefined) [Azole, 3] | 140 | 140 nM |
| O=C(NCC(c1ccccc1)n1ccnc1)c1ccc2sc3ccccc3c(=O)c2c1 (centres undefined) [Azole, 7] | 380 | 310 nM |
| COc1ccc(CC(CNC(=O)c2ccc(-c3ccc(Cl)cc3)cc2)n2ccnc2)cc1 (centres undefined) [Azole, 11] | 110 | 710 nM |
| O=C(NCC(c1ccccc1)n1ccnc1)c1cccc(Sc2ccccc2)c1 (centres undefined) [Azole, 10] | 50 | 50 nM |
| CCCCOc1ccc(-c2ccc(C(=O)NC(Cn3ccnc3)c3ccc(Cl)cn3)cc2)cc1 (centres undefined) [Azole, 17] | 110 | 80 nM |
| COc1cccc(Sc2ccc(C(=O)NCC(c3ccccc3)n3ccnc3)cc2)c1 (centres undefined) [Azole, 9] | 90 | 70 nM |
| O=C(NCC(c1ccccc1)n1ccnc1)c1cnc[nH]1 (centres undefined) [Azole, 5] | 1200 | 1900 nM |
| O=C(NCC(c1ccccc1)n1ccnc1)c1csc(-c2ccc(Cl)cc2)c1 (centres undefined) [Azole, 8] | 110 | 210 nM |
| O=C(NCC(c1ccc(Cl)cc1)(c1ccc(Cl)cc1)n1ccnc1)c1ccccc1 [Azole, 1] | 320 | 1010 nM |
| O=C(NC(Cn1ccnc1)c1ccc(Cl)cn1)c1ccc(-c2ccc(Cl)cc2)cc1 (centres undefined) [Azole, 20] | 70 | – |
| O=C(NC(Cn1ccnc1)c1ccc(Cl)cc1Cl)c1nnc(-c2ccccc2)o1 (centres undefined) [Azole, 2] | – | 90 nM and 100 nM |
| CC(=O)N1CCN(c2ccc(OC[C@H]3CO[C@](Cn4ccnc4)(c4ccc(Cl)cc4Cl)O3)cc2)CC1 [24F2-1,25(OH)D3] | – | 2300 nM |
| O=C(NCC(c1ccccc1)n1ccnc1)c1ccc(-c2ccc(Cl)cc2)cc1 (centres undefined) [Azole, 12] | 70 | 40 nM |

From BindingDB's records for doi:10.1016/j.chembiol.2007.10.011 (Vanderbilt University, 2007)
